Data set [1] in a line: Cell viability assay (MTT). To be noted: mouse, c2c12 cells. The method, then:
The effects of the drugs on the C2C12 cell viability were tested by MTT (Thiazolyl Blue Tetrazolium Bromide) assay. 1×10^4 cells were seeded per well in a 96-well plate in 100 µL growth media. After one day of cell seeding, the cells were treated with different concentrations of the drugs dissolved in 0.1 % DMSO and 100 µL of the media for one day. After the treatment period, 5 mg/ml MTT (M2128, Sigma-Aldrich) solution in PBS (10 µL) was added to each well. After one hour, the MTT solution and all media were removed from the wells. 100 µl of DMSO was added and mixed to dissolve the formazan crystals. Cell viability was analysed by measuring the absorbance of the dissolved formazan at a wavelength of 570 nm with a microplate reader (Hidex Sense Beta Plus).

Data set [2] deals with C2-ceramide treated C2C12 cell line. Put plainly: In vitro sarcopenia model (Example 2): Western blot of target genes and myogenic markers. Type of data set: cell-based, mouse. An excerpt:
C2-ceramide ([…], Sigma Aldrich) was used for inducing sarcopenia in the C2C12 cell line. […] Then, the medium was changed twice, at two-day intervals, with a differentiation medium (DMEM with 2% FBS and 1% P/S) to differentiate myoblasts into myotubes. Because C2-ceramide may affect mitochondrial activity in muscle cells, another cell model was created without introducing ceramide. After completion of myotube differentiation, cells were harvested for western blot analysis. […] The cell lysates were centrifuged at 12.000 rpm for 10 min and supernatants were collected. Protein Assay Dye Reagent (5000006, Bio-Rad) was used for the determination of protein concentration. The absorbance of the proteins was measured spectrophotometrically at 595 nm by a microplate reader (Hidex Sense Beta Plus). […] The membrane was blocked with 5 % skim milk for 30 min at 4 °C with gentle rocking. After blocking, the membrane was treated with primary antibodies: anti-AGL (ab133720, Abcam, UK) anti-PDHX (HPA038484, Human Protein Atlas, Sweden), anti-Myogenin (ab124800, Abcam), anti-Myosin/MyH3 (ab124205, Abcam), anti-Beta actin (ab8227, Abam) as a loading control overnight at 4 °C on a rocking platform. After the treatment of primary antibodies, the membrane was washed three times with TBS-T buffer ([…]-7500-100, Medicago). Then, Goat anti-Rabbit IgG-HRP (ab205718, Abcam) was treated as the secondary antibody for 30 min at 4 °C with gentle rocking.
For orientation: In western blotting, separated proteins are transferred to a membrane and probed.

Another data set relates to ubiquitinated proteins. Particulars: mice, Sakai et al. [39]; cited from earlier work.

“Also recorded” adds a separate entry of the source. Where a SMILES comes first, the peptide text is derived from it. The star is where a group is joined. Cbz = O=C(OCc1ccccc1)*

In data set [1], `CC(C)C[C@@H](C=O)NC(=O)[C@H](CC(C)C)NC(=O)[C@H](CC(C)C)NC(=O)OCc1ccccc1` [MG-132] (Cbz-Leu-Leu-Leu-aldehyde) came in with an MNTC at 24 h of 25 nM. Further, in data set [2] (sarcopenic cells), the “expression levels of MyH3” value is “significantly increase” and the “expression levels of MyoG” value is listed as “significantly increase”. The “expression of myogenic markers” value in data set [2] (sarcopenic cells, compared to the in vitro sarcopenia model) is listed as “increased”. For the same compound, the “expression of AGL” value in data set [2] (selected non-toxic optimal dose, in vitro sarcopenia model) is recorded as “enhanced; also recorded: significantly increase”. Further, the “expression levels of ubiquitinated proteins in atrophic muscle cells” value in the data set with ubiquitinated proteins is given as “downregulation”.

Values taken from patent EP4616854A1, “TREATMENT OF MUSCLE SARCOPENIA” (Molius Saglik Teknolojileri Anonim Sirketi, priority 2024, dated 2025).
